Columns and labels:
Test in all cases: Test E greenhouse herbicide test, pre- and postemergence
Format in all cases: in vivo
[1] = test system: Italian ryegrass (Lolium multiflorum)
Outline: (§1)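 Visual ratings, 0 for no effect up to 100 for complete control, were taken relative to controls 14 to 21 d after greenhouse treatment. Applications used a surfactant-containing non-phytotoxic solvent formulation, sprayed either preemergence on silt loam-sown seed or postemergence on 1- to 4-leaf plants 2-18 cm tall in peat-based potting medium.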

[2] = test system: dayflower (Virginia (VA) dayflower, Commelina virginica)
Outline: as §1

[3] = test system: foxtail, green (green foxtail, Setaria viridis); settings: Preemergence
Outline: as §1

[4] = test system: horseweed (Conyza canadensis)
Outline: as §1

[5] = test system: lambsquarters (Chenopodium album); settings: Preemergence
Outline: as §1

[6] = test system: pigweed, palmer (palmer pigweed, Amaranthus palmeri)
Outline: as §1

[7] = test system: wild poinsettia (Euphorbia heterophylla)
Outline: as §1

[8] = 62 g ai/ha, Postemergence, scale 0 to 100 (0 no effect, 100 complete control)
[9] = 62 g ai/ha, Preemergence, scale 0 to 100 (0 no effect, 100 complete control)
[10] = 125 g ai/ha, Postemergence, scale 0 to 100 (0 no effect, 100 complete control)
[11] = 125 g ai/ha, Preemergence, scale 0 to 100 (0 no effect, 100 complete control)
[12] = 250 g ai/ha, Postemergence, scale 0 to 100 (0 no effect, 100 complete control)
[13] = Postemergence, 31 g ai/ha, visual, scale 0 no effect to 100 complete control
[14] = Preemergence, 31 g ai/ha, scale 0 to 100, 0 no effect, 100 complete control
[15] = Preemergence, 250 g ai/ha, visual, scale 0 no effect to 100 complete control
[16] = Preemergence, 125 g ai/ha, visual, scale 0 no effect to 100 complete control
[17] = 62 g ai/ha, scale 0 to 100 (0 no effect, 100 complete control)
[18] = 31 g ai/ha, scale 0 to 100, 0 no effect, 100 complete control
[19] = 125 g ai/ha, visual, scale 0 no effect to 100 complete control
[20] = 250 g ai/ha, visual, scale 0 no effect to 100 complete control

SMILES: Cn1nc(Br)c(O)c(-c2cccc3ccccc23)c1=O [Compound 20]
- Plant response rating, Ryegrass, Italian [1, 8]: 50
- Plant response rating, Ryegrass, Italian [1, 9]: 95
- Plant response rating, Ryegrass, Italian [1, 10]: 70
- Plant response rating, Ryegrass, Italian [1, 11]: 98
- Plant response rating, Ryegrass, Italian [1, 12]: 80
- Plant response rating, Ryegrass, Italian [1, 13]: 40
- Plant response rating, Ryegrass, Italian [1, 14]: 90
- Plant response rating, Ryegrass, Italian [1, 15]: 100
- Plant response rating, Dayflower, VA [2, 8]: 10
- Plant response rating, Dayflower, VA [2, 9]: 0
- Plant response rating, Dayflower, VA [2, 10]: 50
- Plant response rating, Dayflower, VA [2, 12]: 50
- Plant response rating, Dayflower, VA [2, 13]: 0
- Plant response rating, Dayflower, VA [2, 14]: 0
- Plant response rating, Dayflower, VA [2, 16]: 0
- Plant response rating, Dayflower, VA [2, 15]: 0
- Plant response rating, Foxtail, Green [3, 17]: 40
- Plant response rating, Foxtail, Green [3, 18]: 0
- Plant response rating, Foxtail, Green [3, 19]: 65
- Plant response rating, Foxtail, Green [3, 20]: 70
- Plant response rating, Horseweed [4, 8]: 80
- Plant response rating, Horseweed [4, 9]: 100
- Plant response rating, Horseweed [4, 10]: 70
- Plant response rating, Horseweed [4, 12]: 85
- Plant response rating, Horseweed [4, 13]: 70
- Plant response rating, Horseweed [4, 14]: 100
- Plant response rating, Horseweed [4, 16]: 100
- Plant response rating, Horseweed [4, 15]: 100
- Plant response rating, Lambsquarters [5, 17]: 95
- Plant response rating, Lambsquarters [5, 18]: 70
- Plant response rating, Lambsquarters [5, 19]: 95
- Plant response rating, Lambsquarters [5, 20]: 100
- Plant response rating, Pigweed, Palmer [6, 8]: 35
- Plant response rating, Pigweed, Palmer [6, 9]: 0
- Plant response rating, Pigweed, Palmer [6, 10]: 55
- Plant response rating, Pigweed, Palmer [6, 11]: 5
- Plant response rating, Pigweed, Palmer [6, 12]: 70
- Plant response rating, Pigweed, Palmer [6, 13]: 40
- Plant response rating, Pigweed, Palmer [6, 14]: 0
- Plant response rating, Pigweed, Palmer [6, 15]: 70
- Plant response rating, Poinsettia, Wild [7, 8]: 20
- Plant response rating, Poinsettia, Wild [7, 10]: 30
- Plant response rating, Poinsettia, Wild [7, 12]: 30
- Plant response rating, Poinsettia, Wild [7, 13]: 0

SMILES: Cc1nn(C)c(=O)c(-c2ccc(F)c3ccccc23)c1O [Compound 41]
- Plant response rating, Ryegrass, Italian [1, 8]: 85
- Plant response rating, Ryegrass, Italian [1, 9]: 100
- Plant response rating, Ryegrass, Italian [1, 10]: 85
- Plant response rating, Ryegrass, Italian [1, 11]: 100
- Plant response rating, Ryegrass, Italian [1, 12]: 90
- Plant response rating, Ryegrass, Italian [1, 13]: 80
- Plant response rating, Ryegrass, Italian [1, 14]: 98
- Plant response rating, Ryegrass, Italian [1, 15]: 100
- Plant response rating, Dayflower, VA [2, 8]: 40
- Plant response rating, Dayflower, VA [2, 9]: 40
- Plant response rating, Dayflower, VA [2, 10]: 85
- Plant response rating, Dayflower, VA [2, 12]: 90
- Plant response rating, Dayflower, VA [2, 13]: 50
- Plant response rating, Dayflower, VA [2, 14]: 15
- Plant response rating, Dayflower, VA [2, 16]: 70
- Plant response rating, Dayflower, VA [2, 15]: 80
- Plant response rating, Foxtail, Green [3, 17]: 25
- Plant response rating, Foxtail, Green [3, 18]: 20
- Plant response rating, Foxtail, Green [3, 19]: 50
- Plant response rating, Foxtail, Green [3, 20]: 75
- Plant response rating, Horseweed [4, 8]: 80
- Plant response rating, Horseweed [4, 9]: 100
- Plant response rating, Horseweed [4, 10]: 80
- Plant response rating, Horseweed [4, 12]: 70
- Plant response rating, Horseweed [4, 13]: 75
- Plant response rating, Horseweed [4, 14]: 100
- Plant response rating, Horseweed [4, 16]: 100
- Plant response rating, Horseweed [4, 15]: 100
- Plant response rating, Lambsquarters [5, 17]: 100
- Plant response rating, Lambsquarters [5, 18]: 35
- Plant response rating, Lambsquarters [5, 19]: 100
- Plant response rating, Lambsquarters [5, 20]: 100
- Plant response rating, Pigweed, Palmer [6, 8]: 60
- Plant response rating, Pigweed, Palmer [6, 9]: 85
- Plant response rating, Pigweed, Palmer [6, 10]: 90
- Plant response rating, Pigweed, Palmer [6, 11]: 75
- Plant response rating, Pigweed, Palmer [6, 12]: 95
- Plant response rating, Pigweed, Palmer [6, 13]: 50
- Plant response rating, Pigweed, Palmer [6, 14]: 15
- Plant response rating, Pigweed, Palmer [6, 15]: 85
- Plant response rating, Poinsettia, Wild [7, 9]: 40
- Plant response rating, Poinsettia, Wild [7, 11]: 40
- Plant response rating, Poinsettia, Wild [7, 14]: 15
- Plant response rating, Poinsettia, Wild [7, 15]: 65

SMILES: CCc1sc2ccc(C)cc2c1-c1c(O)c(C)nn(C)c1=O [Compound 47]
- Plant response rating, Ryegrass, Italian [1, 8]: 0
- Plant response rating, Ryegrass, Italian [1, 9]: 30
- Plant response rating, Ryegrass, Italian [1, 10]: 0
- Plant response rating, Ryegrass, Italian [1, 11]: 30
- Plant response rating, Ryegrass, Italian [1, 12]: 10
- Plant response rating, Ryegrass, Italian [1, 13]: 0
- Plant response rating, Ryegrass, Italian [1, 14]: 5
- Plant response rating, Ryegrass, Italian [1, 15]: 50
- Plant response rating, Dayflower, VA [2, 8]: 5
- Plant response rating, Dayflower, VA [2, 9]: 0
- Plant response rating, Dayflower, VA [2, 10]: 0
- Plant response rating, Dayflower, VA [2, 12]: 10
- Plant response rating, Dayflower, VA [2, 13]: 0
- Plant response rating, Dayflower, VA [2, 14]: 0
- Plant response rating, Dayflower, VA [2, 16]: 0
- Plant response rating, Dayflower, VA [2, 15]: 80
- Plant response rating, Foxtail, Green [3, 17]: 20
- Plant response rating, Foxtail, Green [3, 18]: 0
- Plant response rating, Foxtail, Green [3, 19]: 30
- Plant response rating, Foxtail, Green [3, 20]: 70
- Plant response rating, Horseweed [4, 8]: 40
- Plant response rating, Horseweed [4, 10]: 60
- Plant response rating, Horseweed [4, 12]: 75
- Plant response rating, Horseweed [4, 13]: 40
- Plant response rating, Lambsquarters [5, 17]: 100
- Plant response rating, Lambsquarters [5, 18]: 100
- Plant response rating, Lambsquarters [5, 19]: 100
- Plant response rating, Lambsquarters [5, 20]: 100
- Plant response rating, Pigweed, Palmer [6, 8]: 35
- Plant response rating, Pigweed, Palmer [6, 9]: 0
- Plant response rating, Pigweed, Palmer [6, 10]: 30
- Plant response rating, Pigweed, Palmer [6, 11]: 25
- Plant response rating, Pigweed, Palmer [6, 12]: 70
- Plant response rating, Pigweed, Palmer [6, 13]: 35
- Plant response rating, Pigweed, Palmer [6, 14]: 0
- Plant response rating, Pigweed, Palmer [6, 15]: 65
- Plant response rating, Poinsettia, Wild [7, 8]: 15
- Plant response rating, Poinsettia, Wild [7, 9]: 0
- Plant response rating, Poinsettia, Wild [7, 10]: 25
- Plant response rating, Poinsettia, Wild [7, 11]: 0
- Plant response rating, Poinsettia, Wild [7, 12]: 30
- Plant response rating, Poinsettia, Wild [7, 13]: 10
- Plant response rating, Poinsettia, Wild [7, 14]: 0
- Plant response rating, Poinsettia, Wild [7, 15]: 20
